Paper PMC3722775, “1-Aryl-3-[4-(thieno[3,2-d]pyrimidin-4-yloxy)phenyl]ureas as VEGFR-2 Tyrosine Kinase Inhibitors: Synthesis, Biological Evaluation, and Molecular Modelling Studies” (BioMed Research International, 2013)

Assays:
HUVECs [1] = test: TUNEL cell apoptosis assay in HUVECs; format: cell-based, human; conditions: 24 h; for Effect on apoptosis (TUNEL): 0.1, 0.5 and 1 μM, statistical significance only for 2a at the highest concentration
Experimental: (§1) Human umbilical vein endothelial cells (HUVECs) were obtained from the ScienceCell Research Labs (San Diego, CA, USA), HUVECs were seeded on plates coated with 0.2% gelatin (Sigma-Aldrich, Sintra, Portugal) and cultured in M199 medium (Sigma-Aldrich, Sintra, Portugal) supplemented with 20% fetal bovine serum (FBS) (Invitrogen Life Technologies, Scotland, UK), 1% penicillin/streptomycin (Invitrogen Life Technologies), 0.01% heparin (Sigma-Aldrich), and […] endothelial cell growth supplement (Biomedical Technologies Inc., MA, USA) and maintained at 37°C in a humidified 5% carbon dioxide atmosphere. Cells were kept between passages 3 and 8 for every experiment. The test compounds were dissolved in DMSO and added to cell cultures at a concentration of 0.1–10 μM. Incubations were performed for 24 h in medium supplemented with 2% FBS, 1% penicillin/streptomycin, and 60 ng/mL of the vascular endothelial growth factor (Sigma-Aldrich, Sintra, Portugal). Control cells were incubated with vehicle (DMSO at 0.1% in every culture).
HUVECs (6 × 10^4 cells/mL) were grown for 24 h on glass coverslips and incubated with different concentrations (0.1–1 μM) of the tested compounds. TUNEL assay was performed using the In Situ Cell Death Detection kit (Roche Diagnostics, Mannheim, Germany), according to the manufacturer's instruction and as previously reported. Immunofluorescence was visualized under a fluorescence microscope (Olympus, BH-2, UK). The percentage of stained cells was evaluated by counting the cells stained with TUNEL (apoptotic cells) divided by the total number of nuclei counterstained with DAPI (Invitrogen, CA, USA) at a 200x magnification field. One thousand nuclei were evaluated. Results were expressed as percentage of control (100%).

VEGFR-2 = molecular target: T1, VEGFR-2 (Homo sapiens, UniProt P35968); test: VEGFR-2 enzymatic inhibition assay (Z'-LYTE-Tyr1 Peptide FRET kit); format: biochemical; conditions: enzymatic FRET-based assay, 10 μM ATP; four separate determinations
T1 construct: purchased Invitrogen
Experimental: The compounds were assessed for VEGFR-2 inhibition activity using the Z′-LYTE-Tyr1 Peptide assay kit (according to the procedures recommended by the manufacturer Invitrogen, Cat. PV3190) [14]. Briefly, assays were performed in a total of 20 μL in 384-well plates using fluorescence resonance energy transfer technology. A Tyr1 substrate (coumarin-fluorescein double-labeled peptide) at 1.0 μM was incubated for 1 h with 4 μg/mL VEGFR-2, 10 μM ATP, and inhibitors at room temperature in 50 mM Hepes/Na (pH 7.5), 10 mM MgCl2, 2.0 mM MnCl2, 2.5 mM DTT, 0.10 mM orthovanadate, and 0.01% bovine serum albumin. […] After a second incubation of 1 hour, a stop reagent was added to each well.

[2] = system: phosphorylated (activated) VEGFR-2; test: Western blotting of phosphorylated (active) and total VEGFR-2 in HUVECs; format: cell-based, human; conditions: 1 μM, normalized with total VEGFR-2
Experimental: as §1
Proteins were isolated from HUVEC lysates using RIPA (Chemicon International, CA, USA). Proteins were quantified using a spectrophotometer (Jenway, 6405 UV/vis, Essex, UK), and 20 μg of protein were subjected to 8% SDS-PAGE with a 5% stacking gel. After electrophoresis, proteins were blotted into a Hybond nitrocellulose membrane (Amersham, Arlington, VA, USA). Immunodetection for total VEGFR-2 (1 : 1000; Cell Signaling, MA, USA), phosphorylated (activated) VEGFR-2 (1 : 750; Santa Cruz Biotechnology, CA, USA), and β-actin (1 : 3000; Abcam, Cambridge, UK) was accomplished with enhanced chemiluminescence (ECL kit, Amersham, Arlington, USA). […] The relative intensity of each protein blotting analysis was measured using a computerized software program (Bio-Rad, CA, USA), and the expression of activated and total VEGFR-2 were normalized with total VEGFR-2 and β-actin bands, respectively, to compare the expression of proteins in different treatment groups.

HUVECs [3] = test: MTS toxicity (cell viability) assay in HUVECs; format: cell-based, human; conditions: 24 h, control 2.33 ± 0.06 O.D., mean ± SEM
Experimental: as §1
HUVECs (2 × 10^5 cells/mL) were allowed to grow for 24 h and then incubated with the test compounds at a range concentration between 0.1 and 10 μM or control (0.1% DMSO) for 24 h. After the incubation period, cells were washed and their viability was assessed using Cell Titer 96 Aqueous ONE Solution Reagent MTS [3-(4,5-dimethylthiazol-2-yl)-5-(3-carboxymethoxyphenyl)-2-(4-sulfophenyl)-2H-tetrazolium] colorimetric assay (Promega, Madison, USA), according to the instructions provided by the manufacturer and as previously described. Optical density was measured at 492 nm. Three independent experiments were performed, and the results were expressed as mean ± SEM.

T1 sequence (P35968 834-1162 limits assumed): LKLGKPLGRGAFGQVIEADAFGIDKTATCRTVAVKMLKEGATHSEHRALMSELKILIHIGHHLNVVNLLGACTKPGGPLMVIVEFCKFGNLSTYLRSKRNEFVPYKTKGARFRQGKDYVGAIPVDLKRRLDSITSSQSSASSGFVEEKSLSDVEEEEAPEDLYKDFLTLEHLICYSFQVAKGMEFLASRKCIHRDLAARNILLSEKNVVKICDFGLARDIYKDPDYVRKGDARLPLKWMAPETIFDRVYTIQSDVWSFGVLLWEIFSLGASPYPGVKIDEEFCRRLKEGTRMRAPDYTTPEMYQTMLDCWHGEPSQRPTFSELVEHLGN

IC50 (VEGFR-2) [µM]	melting point [°C]	Structure (SMILES)	Effect on apoptosis (TUNEL) (HUVECs [1])	Increase in apoptosis (TUNEL) comparing with untreated cells (HUVECs [1]; highest concentration tested (1 μM)) [%]	Formation of the active (phosphorylated) form of VEGFR-2 [2]	Viability of HUVEC (MTS optical density) (HUVECs [3]; 5.0 μM) [O.D.]	Viability of HUVEC (MTS optical density) (HUVECs [3]; 10 μM) [O.D.]
0.199		O=C(Nc1ccccc1)Nc1ccc(Oc2ncnc3ccsc23)cc1 [Compound 2a, 1-Phenyl-3-[4-(thieno[3,2-d]pyrimidin-4-yloxy)phenyl]urea]	increase in apoptosis	32.8 ± 1.23	significantly decrease	2.00 ± 0.06	1.99 ± 0.03
0.188		COc1ccc(NC(=O)Nc2ccc(Oc3ncnc4ccsc34)cc2)cc1 [Compound 2b, 1-(4-Methoxyphenyl)-3-[4-(thieno[3,2-d]pyrimidin-4-yloxy)phenyl]urea]	increase in apoptosis		significantly decrease	1.84 ± 0.05	1.82 ± 0.04
0.15		N#Cc1ccc(NC(=O)Nc2ccc(Oc3ncnc4ccsc34)cc2)cc1 [Compound 2c, 1-(4-Cyanophenyl)-3-[4-(thieno[3,2-d]pyrimidin-4-yloxy)phenyl]urea]	increase in apoptosis		did not significantly inhibit		1.96 ± 0.02
> 100	285.7 to 287.3	Cc1csc2c(Oc3ccc(NC(=O)Nc4ccccc4)cc3)ncnc12 [Compound 2d, 1-Phenyl-3-[4-(7-Methylthieno[3,2-d]pyrimidin-4-yloxy)phenyl]urea]					
> 100	248.4 to 249.6	COc1ccc(NC(=O)Nc2ccc(Oc3ncnc4c(C)csc34)cc2)cc1 [Compound 2e, 1-(4-Methoxyphenyl)-3-[4-(7-methylthieno[3,2-d]pyrimidin-4-yloxy)phenyl]urea]					
> 100		Cc1csc2c(Oc3ccc(NC(=O)Nc4ccc(C#N)cc4)cc3)ncnc12 [Compound 2f, 1-(4-Cyanophenyl)-3-[4-(7-methylthieno[3,2-d]pyrimidin-4-yloxy)phenyl]urea]					
